Paper PMC4970318 (Journal of molecular biology, 2014)
Peptide text beside a SMILES is read from it. * marks the point of attachment. FITC = O=C1OC2(c3ccc(O)cc3Oc3cc(O)ccc32)c2ccc(NC(=S)*)cc21; Ahx = NCCCCCC(=O)O

What was measured:
M3P6 (MAGI-3 PDZ6) = M3P6 (MAGI-3 PDZ6) (Homo sapiens, UniProt Q5TCQ9); type: binding; details: for selectivity for M3P6 over N2P2: ratio of Ki values of Table 1; for shift in selectivity towards M3P6: relative to the native peptide, M3P6 vs N2P2
N2P2 (NHERF-2 PDZ2) = N2P2 (NHERF-2 PDZ2) (Homo sapiens, UniProt Q15599); test: biochemical
N2P2 (NHERF-2 PDZ2), sequence (Q15599 143-280): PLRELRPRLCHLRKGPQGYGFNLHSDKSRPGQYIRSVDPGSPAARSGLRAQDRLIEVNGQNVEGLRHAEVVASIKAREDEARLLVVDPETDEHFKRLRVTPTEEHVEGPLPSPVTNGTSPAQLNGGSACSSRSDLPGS

[1] = molecular target: M3P6m (I71V mutant of M3P6) (Homo sapiens, UniProt Q5TCQ9, I1085V); type: binding
M3P6m (I71V mutant of M3P6), sequence (Q5TCQ9 1040-1149 isoform Q5TCQ9-2 I1110V): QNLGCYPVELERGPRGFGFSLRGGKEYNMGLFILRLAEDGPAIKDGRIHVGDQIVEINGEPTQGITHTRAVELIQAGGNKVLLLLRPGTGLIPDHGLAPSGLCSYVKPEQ

M3P6 (MAGI-3 PDZ6), sequence (Q5TCQ9 1040-1149 isoform Q5TCQ9-2): as the sequence (Q5TCQ9 1040-1149 isoform Q5TCQ9-2 I1110V) above, with V71I counted along it

With `CC(C)[C@H](NC(=O)[C@H](Cc1c[nH]c2ccccc12)NC(=O)[C@@H](NC(=O)[C@H](CCC(=O)O)NC(=O)[C@H](Cc1ccccc1)NC(=O)[C@@H](N)CC(=O)O)[C@@H](C)O)C(=O)O` [RD1, DFETWV] (H-DFETWV-OH) the Ki (M3P6 (MAGI-3 PDZ6)) was 1.8 ± 0.5 µM, the “selectivity for M3P6 over N2P2” value (M3P6 (MAGI-3 PDZ6)) was 3 fold and the “shift in selectivity towards M3P6” value (M3P6 (MAGI-3 PDZ6)) was 5 fold.
`C[C@@H](O)[C@H](NC(=O)[C@H](CO)NC(=O)CNC(=O)[C@H](CO)NC(=O)CNC(=O)CNC(=O)CCCCCNC(=S)Nc1ccc2c(c1)C(=O)OC21c2ccc(O)cc2Oc2cc(O)ccc21)C(=O)N[C@@H](CCCNC(=N)N)C(=O)N[C@@H](Cc1ccccc1)C(=O)O` [FD2 8-mer, FITC-Ahx-GGSGSTRF] ({FITC-Ahx}-GGSGSTRF-OH) showed a Kd (N2P2 (NHERF-2 PDZ2)) of 3.6 ± 0.5 µM.
With `CSCC[C@H](NC(=O)[C@@H](N)CC(C)C)C(=O)N[C@@H](CC(=O)O)C(=O)N[C@@H](CO)C(=O)N[C@H](C(=O)N[C@@H](CC(C)C)C(=O)O)[C@@H](C)O` [LPA2 6-mer, LMDSTL, reference compound] (H-LMDSTL-OH) the Ki (M3P6 (MAGI-3 PDZ6)) was 47.4 ± 2.6 µM and the Ki [1] was 67.7 ± 5.4 µM.
Compound `C[C@@H](O)[C@H](NC(=O)[C@H](CO)NC(=O)CNC(=O)[C@@H](N)CO)C(=O)N[C@@H](Cc1c[nH]cn1)C(=O)N[C@@H](Cc1ccccc1)C(=O)O` [FD3, SGSTHF] (H-SGSTHF-OH) has a Ki (M3P6 (MAGI-3 PDZ6)) greater than 1000 µM.
Compound `CC(C)[C@H](NC(=O)[C@@H](NC(=O)[C@@H](NC(=O)[C@H](CO)NC(=O)[C@H](Cc1ccccc1)NC(=O)[C@@H](N)CC(=O)O)[C@@H](C)O)[C@@H](C)O)C(=O)O` [CST, DFSTTV] (H-DFSTTV-OH) has a Ki [1] of 242 ± 17.6 µM.
Compound `CC(C)[C@H](NC(=O)[C@H](Cc1c[nH]c2ccccc12)NC(=O)[C@@H](NC(=O)[C@H](CC(=O)O)NC(=O)[C@H](Cc1ccccc1)NC(=O)CN)[C@@H](C)O)C(=O)O` [RD3, GFDTWV] (H-GFDTWV-OH) has a Ki (M3P6 (MAGI-3 PDZ6)) of 6.8 ± 1.5 µM.
`CC(C)[C@H](NC(=O)[C@H](Cc1c[nH]c2ccccc12)NC(=O)[C@@H](NC(=O)[C@H](CCC(=O)O)NC(=O)[C@H](Cc1ccccc1)NC(=O)CN)[C@@H](C)O)C(=O)O` [RD2, GFETWV] (H-GFETWV-OH) was tested, and the Ki (M3P6 (MAGI-3 PDZ6)) was 2.7 ± 0.4 µM, the “selectivity for M3P6 over N2P2” value (M3P6 (MAGI-3 PDZ6)) was 4.6 fold and the “shift in selectivity towards M3P6” value (M3P6 (MAGI-3 PDZ6)) was 8 fold.
`CC(C)[C@H](NC(=O)[C@H](CCCNC(=N)N)NC(=O)[C@@H](NC(=O)[C@H](CO)NC(=O)[C@H](Cc1ccccc1)NC(=O)[C@@H](N)CC(=O)O)[C@@H](C)O)C(=O)O` [CSR, DFSTRV] (H-DFSTRV-OH) gave a Ki [1] of 510 ± 51.4 µM.
`CC(C)[C@H](NC(=O)[C@H](CCCNC(=N)N)NC(=O)[C@@H](NC(=O)[C@H](C)NC(=O)[C@H](Cc1ccccc1)NC(=O)[C@@H](N)CC(=O)O)[C@@H](C)O)C(=O)O` [CAR, DFATRV] (H-DFATRV-OH) was tested, and the Ki [1] was 285 ± 24.5 µM.
`C[C@@H](O)[C@H](N)C(=O)NCC(=O)N[C@@H](CCC(=O)O)C(=O)N[C@H](C(=O)N[C@H](C(=O)N[C@@H](Cc1ccccc1)C(=O)O)[C@@H](C)O)[C@@H](C)O` [FD1, TGETTF] (H-TGETTF-OH) was tested, and the Ki (M3P6 (MAGI-3 PDZ6)) was 600 ± 300 µM and the Ki [1] was 151 ± 15.9 µM.
In the case of `CC(C)[C@H](NC(=O)[C@@H](NC(=O)[C@@H](NC(=O)[C@H](C)NC(=O)[C@H](Cc1ccccc1)NC(=O)[C@@H](N)CC(=O)O)[C@@H](C)O)[C@@H](C)O)C(=O)O` [CAT, DFATTV] (H-DFATTV-OH), the Ki [1] is reported as 351 ± 17.9 µM.
